Source: US11613525B2 (CTXT PTY LIMITED, priority 2018, dated 2023)

How the values were obtained:
human STING (HAQ) [1] = target: T1, human STING (HAQ) (Homo sapiens, UniProt Q86WV6, G230A/H232R/R293Q); conditions: read-out: SPR (HAQ) KD; 25° C.
huSTING (WT) [2] = target: T2, huSTING (WT) (Homo sapiens (Human), UniProt Q86WV6, H232R); assay: THP-1 reporter cell line assay, THP-1-Dual KI-hSTING-R232 cells; assay type: cell-based; conditions: read-out: Cellular EC50 huSTING (WT)
Target sequence in this assay (Q86WV6 whole entry H232R): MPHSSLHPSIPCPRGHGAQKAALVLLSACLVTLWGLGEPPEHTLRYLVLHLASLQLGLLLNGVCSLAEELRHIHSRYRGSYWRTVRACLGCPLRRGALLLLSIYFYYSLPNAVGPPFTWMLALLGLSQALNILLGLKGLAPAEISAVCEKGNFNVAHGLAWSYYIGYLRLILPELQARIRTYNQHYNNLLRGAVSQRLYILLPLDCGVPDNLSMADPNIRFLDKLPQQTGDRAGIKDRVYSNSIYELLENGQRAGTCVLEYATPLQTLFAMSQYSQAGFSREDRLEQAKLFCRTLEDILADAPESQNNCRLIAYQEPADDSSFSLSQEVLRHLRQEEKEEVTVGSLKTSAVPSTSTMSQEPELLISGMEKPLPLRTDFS

huSTING (HAQ) = huSTING (HAQ) (Homo sapiens (Human), UniProt Q86WV6, G230A/H232R/R293Q/R71H); assay: THP-1 reporter cell line assay, THP-1 STING Lucia ISG cells; assay type: cell-based; conditions: THP-1 STING Lucia ISG cells; 24 h; top concentration 50 μM; read-out: Cellular EC50 huSTING (HAQ)
huSTING (WT) [3] = target: T2, huSTING (WT); assay: Differential scanning fluorimetry (DSF), huSTING (WT); assay type: binding; conditions: read-out: DSF huSTING (WT) ΔTm (° C.)
Target sequence in this assay (Q86WV6 other isoform, or with tags, fused parts or gaps, stated change not applied): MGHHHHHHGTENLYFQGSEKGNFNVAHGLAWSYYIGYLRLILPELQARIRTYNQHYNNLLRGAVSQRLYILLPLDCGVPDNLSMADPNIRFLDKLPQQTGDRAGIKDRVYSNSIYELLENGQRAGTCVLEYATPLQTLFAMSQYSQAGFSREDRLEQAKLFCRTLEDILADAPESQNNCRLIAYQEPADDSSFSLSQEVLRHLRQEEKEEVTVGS

human STING (HAQ) [4] = target: T1, human STING (HAQ); assay: biochemical; assay type: binding; conditions: 1 μM protein, compound at 100 μM

T1 sequence (Q86WV6 whole entry G230A/H232R/R293Q, looked up): as the sequence (Q86WV6 whole entry H232R) above, with G230A, R293Q counted along it
Chain of huSTING (HAQ) (Q86WV6 whole entry R71H/G230A/H232R/R293Q): as the sequence (Q86WV6 whole entry H232R) above, with R71H, G230A, R293Q counted along it

Structure (SMILES): NC(=O)c1ccc(OCc2c(C(=O)O)sc3cc(Cl)cc(F)c23)cc1 [Example 20, 3-((4-Carbamoylphenoxy)methyl)-6-chloro-4-fluorobenzo[b]thiophene-2-carboxylic acid]
- Kd (human STING (HAQ) [1]): 34 µM
- EC50 (huSTING (WT) [2]): > 50 µM
- EC50 (huSTING (HAQ)): > 50 µM
- ΔTm at 100 µM (huSTING (WT) [3]): -2.76 °C
- DSF huSTING (HAQ) ΔTm (° C.) (human STING (HAQ) [4]): 5.83 °C

Structure (SMILES): NC(=O)c1ccc(OCc2c(C(=O)O)sc3cccc(F)c23)cc1 [Example 1, 3-((4-Carbamoylphenoxy)methyl)-4-fluorobenzo[b]thiophene-2-carboxylic acid]
- Kd (human STING (HAQ) [1]): 32 µM
- EC50 (huSTING (WT) [2]): > 50 µM
- EC50 (huSTING (HAQ)): > 50 µM
- ΔTm at 100 µM (huSTING (WT) [3]): 0.99 °C
- DSF huSTING (HAQ) ΔTm (° C.) (human STING (HAQ) [4]): 7.78 °C

Structure (SMILES): NC(=O)c1ccc(OCc2c(C(=O)O)sc3cccc(F)c23)cc1C(F)(F)F [Example 52, 3-((4-Carbamoyl-3-(trifluoromethyl)phenoxy)methyl)-4-fluorobenzo[b]thiophene-2-carboxylic acid]
- Kd (human STING (HAQ) [1]): 260 µM
- EC50 (huSTING (WT) [2]): > 50 µM
- EC50 (huSTING (HAQ)): > 50 µM
- ΔTm at 100 µM (huSTING (WT) [3]): -2.15 °C
- DSF huSTING (HAQ) ΔTm (° C.) (human STING (HAQ) [4]): −1.22 °C

Structure (SMILES): NC(=O)c1ccc(OCc2c(C(=O)O)sc3cccc(Cl)c23)c(Cl)c1 [Example 38, 3-((4-Carbamoyl-2-chlorophenoxy)methyl)-4-chlorobenzo[b]thiophene-2-carboxylic acid]
- Kd (human STING (HAQ) [1]): 16.4 µM
- EC50 (huSTING (WT) [2]): > 50 µM
- EC50 (huSTING (HAQ)): > 50 µM
- ΔTm at 100 µM (huSTING (WT) [3]): -1.4 °C
- DSF huSTING (HAQ) ΔTm (° C.) (human STING (HAQ) [4]): 6.02 °C

Structure (SMILES): NC(=O)c1cc(F)c(OCc2c(C(=O)O)sc3cccc(F)c23)c(F)c1 [Example 57, 3-((4-Carbamoyl-2,6-difluorophenoxy)methyl)-4-fluorobenzo[b]thiophene-2-carboxylic acid]
- Kd (human STING (HAQ) [1]): 9.05 µM
- EC50 (huSTING (WT) [2]): > 50 µM
- EC50 (huSTING (HAQ)): > 50 µM
- ΔTm at 100 µM (huSTING (WT) [3]): 3.43 °C
- DSF huSTING (HAQ) ΔTm (° C.) (human STING (HAQ) [4]): 10.74 °C

Structure (SMILES): NC(=O)c1c(F)cc(OCc2c(C(=O)O)sc3cccc(Cl)c23)cc1F [Example 28, 3-((4-Carbamoyl-3,5-difluorophenoxy)methyl)-4-chlorobenzo[b]thiophene-2-carboxylic acid]
- Kd (human STING (HAQ) [1]): 10.9 µM
- EC50 (huSTING (WT) [2]): > 50 µM
- EC50 (huSTING (HAQ)): > 50 µM
- ΔTm at 100 µM (huSTING (WT) [3]): 1.19 °C
- DSF huSTING (HAQ) ΔTm (° C.) (human STING (HAQ) [4]): 6.93 °C

Structure (SMILES): NC(=O)c1ccc(OCc2c(C(=O)O)sc3cccc(Br)c23)cc1 [Example 22, 4-Bromo-3-((4-carbamoylphenoxy)methyl)benzo[b]thiophene-2-carboxylic acid]
- Kd (human STING (HAQ) [1]): 0.755 µM
- EC50 (huSTING (WT) [2]): 41 µM
- EC50 (huSTING (HAQ)): > 50 µM
- ΔTm at 100 µM (huSTING (WT) [3]): 7.61 °C
- DSF huSTING (HAQ) ΔTm (° C.) (human STING (HAQ) [4]): 17.08 °C

Structure (SMILES): NC(=O)c1ccc(OCc2c(C(=O)O)sc3ccc(Cl)cc23)cc1 [Example 14, 3-((4-Carbamoylphenoxy)methyl)-5-chlorobenzo[b]thiophene-2-carboxylic acid]
- Kd (human STING (HAQ) [1]): 120 µM
- EC50 (huSTING (WT) [2]): > 50 µM
- EC50 (huSTING (HAQ)): > 50 µM
- ΔTm at 100 µM (huSTING (WT) [3]): -4.26 °C
- DSF huSTING (HAQ) ΔTm (° C.) (human STING (HAQ) [4]): 0.09 °C

Structure (SMILES): COc1cc(C(N)=O)ccc1OCc1c(C(=O)O)sc2cccc(Cl)c12 [Example 30, 3-((4-Carbamoyl-2-methoxyphenoxy)methyl)-4-chlorobenzo[b]thiophene-2-carboxylic acid]
- Kd (human STING (HAQ) [1]): 22.1 µM
- EC50 (huSTING (WT) [2]): > 50 µM
- EC50 (huSTING (HAQ)): 36.3 µM
- ΔTm at 100 µM (huSTING (WT) [3]): -0.32 °C
- DSF huSTING (HAQ) ΔTm (° C.) (human STING (HAQ) [4]): 5.4 °C

Structure (SMILES): NC(=O)c1ccc(OCc2c(C(=O)O)sc3cc(Cl)ccc23)cc1 [Example 10, 3-((4-carbamoylphenoxy)methyl)-6-chlorobenzo[b]thiophene-2-carboxylic acid]
- Kd (human STING (HAQ) [1]): 187 µM
- EC50 (huSTING (WT) [2]): > 50 µM
- EC50 (huSTING (HAQ)): > 50 µM
- ΔTm at 100 µM (huSTING (WT) [3]): -2.34 °C
- DSF huSTING (HAQ) ΔTm (° C.) (human STING (HAQ) [4]): 1.7 °C

Structure (SMILES): Cc1cc(OCc2c(C(=O)O)sc3cccc(F)c23)ccc1C(N)=O [Example 54, 3-((4-Carbamoyl-3-methylphenoxy)methyl)-4-fluorobenzo[b]thiophene-2-carboxylic acid]
- Kd (human STING (HAQ) [1]): 51 µM
- EC50 (huSTING (WT) [2]): > 50 µM
- EC50 (huSTING (HAQ)): > 50 µM
- ΔTm at 100 µM (huSTING (WT) [3]): -1.28 °C
- DSF huSTING (HAQ) ΔTm (° C.) (human STING (HAQ) [4]): 2.56 °C
